Data: US20220017484A1, “INHIBITOR OF BRUTON TYROSINE KINASE” (BEIJING RECIPROCAPHARMACEUTICALS CO., LTD., priority 2018, published 2022)

Tests used:
Btk = Btk (Homo sapiens, UniProt Q06187); assay: Analysis of in vitro inhibitory activity of Btk (cell-free TR-FRET kinase assay); assay type: biochemical; details: for IC50: cell-free TR-FRET, ATP at Km, 1 h, read-out: Efficacy (Btk IC50); for inhibitory effects against Btk (in words): summary of Table 1 efficacy data
Procedure: In a cell-free kinase assay, the method described below or a similar method was used to determine the half inhibitory concentration (IC50) of the compound of the present invention on Btk.
Btk kinase activity was determined using a time-resolved fluorescence resonance energy transfer (TR-FRET) methodology. Measurements were performed in a reaction volume of 50 μL using 96-well assay plates. […] The reaction was quenched by the addition of 1.2 equivalents of EDTA (relative to divalent cation) in […] of 1× Lance buffer (Perkin-Elmer). Streptavidin-APC (Perkin-Elmer) and Eu-labeled p-Tyr100 antibody (Perkin-Elmer) in 1× Lance buffer were added in a volume of 25 μL to give final concentrations of 100 nM and 2.5 nM, respectively. The mixture was allowed to incubate for 1 h. The TR-FRET signal was measured on a multimode plate reader at an excitation wavelength (λEx) of 330 nm and detection wavelengths (λEm) of 615 and 665 nm. The activity was determined by the ratio of fluorescence at 665 nm to that at 615 nm. For each compound, the enzyme activity was measured in the presence of different concentrations of the compound. Negative control reactions were performed in the absence of inhibitor in replicates of six, and two no-enzyme controls were used to determine baseline fluorescence levels. IC50 was obtained by fitting using the program Batch Ki (Kuzmic, et al. (2000), Anal. Biochem. 286:45-50).
The Example compounds 1-50 of the present invention were synthesized according to the above Synthetic Schemes I to VII. In the analysis of in vitro inhibitory activity of Btk, the IC50 values of the Example compounds 1-50 of the present invention were determined. The IC50 values are given according to the interval of the IC50 value, where “+++” means IC50<100 nM; “++” means 100 nM≤IC50<1000 nM; and “+” means 1000 nM≤IC50<10000 nM.

OCI-LY7 cells = assay: Cell viability assay (CellTiter-Glo, 72 h); assay type: cell-based; details: Homo sapiens, read-out: Results from inhibition of OCI-LY7 cells (IC50)
Procedure: An in vitro cell viability assay was conducted using the compounds of Examples 1-50 following the steps below:
1. After OCI-LY7 cells were recovered, they were cultured at 37° C., 5% CO2, and 95% humidity.
2. For the compounds of Examples 1-50, 8 compound solutions at different concentrations were prepared, respectively. 50 μL of the compound solution at each concentration was added to a 96-well black plate.
3. The cell concentration was adjusted to about 30,000 cells/mL. 100 μL of cell suspension was added to the 96-well plate, and mixed well. The final cell density was about 3,000 cells/well.
4. The 96-well plate was placed at 37° C., 5% CO2, and 95% humidity for 72 h.
5. The cell survival rate was measured by the method of CellTiter-Glo® Luminescent Cell Viability Assay (Promega, Cat #G7572). The fluorescence data were read on a microplate reader (EnVision™, a multi-function microplate detector, PerkinElmer).
6. The obtained fluorescence data were analyzed using GraphPad Prism software. The cell survival rate was calculated for each example compound at each concentration, and the IC50 interval of each example compound was obtained.

Btk, sequence (Q06187 whole entry): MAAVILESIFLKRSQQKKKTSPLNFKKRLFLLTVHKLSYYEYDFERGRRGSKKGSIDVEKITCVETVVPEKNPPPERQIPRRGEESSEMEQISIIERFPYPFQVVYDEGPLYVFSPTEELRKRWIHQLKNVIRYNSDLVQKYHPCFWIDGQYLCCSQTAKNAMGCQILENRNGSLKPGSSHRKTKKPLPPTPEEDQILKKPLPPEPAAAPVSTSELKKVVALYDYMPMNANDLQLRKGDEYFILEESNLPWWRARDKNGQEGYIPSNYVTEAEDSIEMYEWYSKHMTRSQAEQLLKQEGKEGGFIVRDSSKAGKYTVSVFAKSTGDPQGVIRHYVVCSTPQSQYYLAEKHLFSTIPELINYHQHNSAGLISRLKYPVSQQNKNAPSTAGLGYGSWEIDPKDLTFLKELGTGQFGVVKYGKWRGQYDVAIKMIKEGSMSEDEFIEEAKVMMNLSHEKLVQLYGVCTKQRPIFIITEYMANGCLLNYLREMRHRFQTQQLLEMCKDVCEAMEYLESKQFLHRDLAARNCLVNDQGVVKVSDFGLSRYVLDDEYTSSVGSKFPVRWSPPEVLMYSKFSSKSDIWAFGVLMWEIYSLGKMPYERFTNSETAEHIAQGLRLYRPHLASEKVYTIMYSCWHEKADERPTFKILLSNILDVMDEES

SMILES	IC50 (Btk)	IC50 (OCI-LY7 cells)	inhibitory effects against Btk (in words) (Btk)
Cc1cc[nH]c(=O)c1-c1ccc2nc(Nc3cccc(N)c3)ncc2c1 [Example 1]	< 100 nM	< 500 nM	
C=CC(=O)Nc1cccc(Nc2ncc3cc(-c4c(C)cc[nH]c4=O)ccc3n2)c1 [Example 2]	< 100 nM	< 500 nM	particularly excellent inhibitory effects
CCC(=O)Nc1cccc(Nc2ncc3cc(-c4c(C)cc[nH]c4=O)ccc3n2)c1 [Example 3]	< 100 nM	< 500 nM	
C/C=C/C(=O)Nc1cccc(Nc2ncc3cc(-c4c(C)cc[nH]c4=O)ccc3n2)c1 [Example 4]	< 100 nM	< 500 nM	
Cc1cc[nH]c(=O)c1-c1ccc2nc(Nc3cccc(NC(=O)/C=C/CN(C)C)c3)ncc2c1 [Example 5]	< 100 nM	< 500 nM	particularly excellent inhibitory effects
C=CC(=O)Nc1cc(Nc2ncc3cc(-c4c(C)cc[nH]c4=O)ccc3n2)ccc1OCCOC [Example 6]	< 100 nM	< 500 nM	
Cc1cc[nH]c(=O)c1-c1ccc2nc(Nc3cccc(NC(=O)/C=C/CN4CCCCC4)c3)ncc2c1 [Example 7]	< 100 nM	< 500 nM	
Cc1cc[nH]c(=O)c1-c1ccc2nc(Nc3cccc(NC(=O)/C=C/CN4CCOCC4)c3)ncc2c1 [Example 8]	< 100 nM	< 500 nM	
Cc1cc[nH]c(=O)c1-c1ccc2nc(Nc3cccc(NC(=O)CN)c3)ncc2c1 [Example 9]	< 100 nM	500 to 2500 nM	
C=CC(=O)NCC(=O)Nc1cccc(Nc2ncc3cc(-c4c(C)cc[nH]c4=O)ccc3n2)c1 [Example 10]	< 100 nM	< 500 nM	
Cc1cc[nH]c(=O)c1-c1ccc2nc(Nc3cccc(NC(=O)CCN(C)C)c3)ncc2c1 [Example 11]	< 100 nM	< 500 nM	
Cc1ccn(-c2cccc(C(F)(F)F)c2)c(=O)c1-c1ccc2nc(Nc3cccc(N)c3)ncc2c1 [Example 12]	1000 to 10000 nM	< 500 nM	
C=CC(=O)Nc1cccc(Nc2ncc3cc(-c4c(C)ccn(-c5cccc(C(F)(F)F)c5)c4=O)ccc3n2)c1 [Example 13]	100 to 1000 nM	< 500 nM	
Cc1ccn(-c2ccc(N3CCOCC3)cc2)c(=O)c1-c1ccc2nc(Nc3cccc(N)c3)ncc2c1 [Example 14]	100 to 1000 nM	< 500 nM	
C=CC(=O)Nc1cccc(Nc2ncc3cc(-c4c(C)ccn(-c5ccc(N6CCOCC6)cc5)c4=O)ccc3n2)c1 [Example 15]	100 to 1000 nM	< 500 nM	
Cc1ccn(C)c(=O)c1-c1ccc2nc(Nc3cccc(N)c3)ncc2c1 [Example 16]	1000 to 10000 nM	500 to 2500 nM	
C=CC(=O)Nc1cccc(Nc2ncc3cc(-c4c(C)ccn(C)c4=O)ccc3n2)c1 [Example 17]	100 to 1000 nM	500 to 2500 nM	
Cc1cc[nH]c(=O)c1-c1ccc2nc(Nc3cccc(NC(=O)[C@@H](N)C(C)C)c3)ncc2c1 [Example 18]	< 100 nM	< 500 nM	
C=CC(=O)N[C@H](C(=O)Nc1cccc(Nc2ncc3cc(-c4c(C)cc[nH]c4=O)ccc3n2)c1)C(C)C [Example 19]	< 100 nM	< 500 nM	particularly excellent inhibitory effects
Cc1cc[nH]c(=O)c1-c1ccc2nc(Nc3cccc(NC(=O)[C@@H]4CCCN4)c3)ncc2c1 [Example 20]	100 to 1000 nM	500 to 2500 nM	
C=CC(=O)N1CCC[C@H]1C(=O)Nc1cccc(Nc2ncc3cc(-c4c(C)cc[nH]c4=O)ccc3n2)c1 [Example 21]	< 100 nM	< 500 nM	

SMILES	IC50 (Btk)	IC50 (OCI-LY7 cells)	inhibitory effects against Btk (in words) (Btk)
CNc1cccc(Nc2ncc3cc(-c4c(C)cc[nH]c4=O)ccc3n2)c1 [Example 22]	< 100 nM	< 500 nM	
Cc1cc[nH]c(=O)c1-c1ccc2nc(Nc3cccc(N(C)C(=O)/C=C/CN(C)C)c3)ncc2c1 [Example 24]	< 100 nM	< 500 nM	particularly excellent inhibitory effects
CCNc1cccc(Nc2ncc3cc(-c4c(C)cc[nH]c4=O)ccc3n2)c1 [Example 25]	< 100 nM	< 500 nM	
C=CC(=O)N(c1cccc(Nc2ncc3cc(-c4c(C)cc[nH]c4=O)ccc3n2)c1)C(C)C [Example 27]	< 100 nM	< 500 nM	
C=CC(=O)N(CC)c1cccc(Nc2ncc3cc(-c4c(C)ccn(C(=O)OCC)c4=O)ccc3n2)c1 [Example 28]	< 100 nM	< 500 nM	
C=CC(=O)N(CC)c1cccc(Nc2ncc3cc(-c4c(C)ccn(C(C)=O)c4=O)ccc3n2)c1 [Example 29]	100 to 1000 nM	500 to 2500 nM	
C=CC(=O)N(CC)c1cccc(Nc2ncc3cc(-c4c(C)ccn(C(=O)N(C)C)c4=O)ccc3n2)c1 [Example 30]	100 to 1000 nM	≥ 2500 nM	
C=CC(=O)N(CC)c1cccc(Nc2ncc3cc(-c4c(C)ccn(C(=O)OCc5ccccc5)c4=O)ccc3n2)c1 [Example 31]	< 100 nM	< 500 nM	
C=CC(=O)N(CC)c1cccc(Nc2ncc3cc(-c4c(C)ccn(-c5ncco5)c4=O)ccc3n2)c1 [Example 32]	100 to 1000 nM	500 to 2500 nM	
CC#CC(=O)N(CC)c1cccc(Nc2ncc3cc(-c4c(C)cc[nH]c4=O)ccc3n2)c1 [Example 33]	< 100 nM	< 500 nM	particularly excellent inhibitory effects
CCN(C(=O)/C=C/CN(C)C)c1cccc(Nc2ncc3cc(-c4c(C)cc[nH]c4=O)ccc3n2)c1 [Example 34]	< 100 nM	500 to 2500 nM	particularly excellent inhibitory effects
C=C(F)C(=O)N(CC)c1cccc(Nc2ncc3cc(-c4c(C)cc[nH]c4=O)ccc3n2)c1 [Example 35]	< 100 nM	< 500 nM	
C=CC(=O)Nc1cc(Nc2ncc3cc(-c4c(C)cc[nH]c4=O)ccc3n2)ccc1OC [Example 36]	< 100 nM	< 500 nM	
C=CC(=O)N(CC)c1cc(Nc2ncc3cc(-c4c(C)cc[nH]c4=O)ccc3n2)ccc1OC [Example 37]	< 100 nM	< 500 nM	particularly excellent inhibitory effects
C=CC(=O)N(CCOC)c1cccc(Nc2ncc3cc(-c4c(C)cc[nH]c4=O)ccc3n2)c1 [Example 38]	< 100 nM	< 500 nM	particularly excellent inhibitory effects
C=CC(=O)N(CC)c1cc(Nc2ncc3cc(-c4c(C)cc[nH]c4=O)ccc3n2)ccc1F [Example 39]	< 100 nM	500 to 2500 nM	
C=CC(=O)N(CC)c1cc(Nc2ncc3cc(-c4c(C)cc[nH]c4=O)ccc3n2)ccc1C [Example 40]	< 100 nM	500 to 2500 nM	
Cc1cc[nH]c(=O)c1-c1ccc2nc(Nc3ccc4c(c3)NCCO4)ncc2c1 [Example 41]	< 100 nM	< 500 nM	
C=CC(=O)N1CCOc2ccc(Nc3ncc4cc(-c5c(C)cc[nH]c5=O)ccc4n3)cc21 [Example 42]	< 100 nM	500 to 2500 nM	
C=CC(=O)N(CCN(C)C)c1cccc(Nc2ncc3cc(-c4c(C)cc[nH]c4=O)ccc3n2)c1 [Example 43]	< 100 nM	≥ 2500 nM	
[2H]C([2H])([2H])N(C(=O)C=C)c1cccc(Nc2ncc3cc(-c4c(C)cc[nH]c4=O)ccc3n2)c1 [Example 44]	< 100 nM	< 500 nM	particularly excellent inhibitory effects
